This experiment has as its system Gryllus bimaculatus. The experiment can be described thus: Induction of paralysis in Gryllus bimaculatus assessed as drug level causing paralysis per gram of cricket after 5 mins. It counts as functional.
On to `NCCCC[C@H](N)C(=O)NCCCNCCCNCCCCNC(=O)[C@H](CC(N)=O)NC(=O)Cc1cc(=O)oc2cc(O)ccc12`, for which the ED50 amounted to 1.05 nmol.

As for `NCCCC[C@H](N)C(=O)NCCCNCCCNCCCCNC(=O)[C@H](CC(N)=O)NC(=O)c1cc2ccc(O)cc2oc1=O`, the ED50 came to 2.59 nmol.

Turning to `NCCCCNCC(=O)NCCCNCCCNCCCCNC(=O)[C@H](CC(N)=O)NC(=O)Cc1cc(=O)oc2cc(O)ccc12`, the ED50 was found to be 0.136 nmol. As to `NCCCCNCC(=O)NCCCNCCCNCCCCNC(=O)[C@H](CC(N)=O)NC(=O)c1cc2ccc(O)cc2oc1=O`, the ED50 is 5.69 nmol.

Regarding `NCCCC[C@H](N)C(=O)NCCCNCCCNCCCCNC(=O)[C@H](CC(N)=O)NC(=O)Cc1ccc(O)cc1O`, the ED50 is listed as 0.175 nmol.

The values are drawn from ChEMBL document CHEMBL1139337, “Syntheses and biological activities of fluorescent-labeled analogs of acylpolyamine toxin NPTX-594 isolated from the venom of Madagascar Joro spider” (2009).
